Laboratory results from US3932383A, “9-Dihydroniddamycin A compounds and related 3-(O)-esters and the process for their preparation” (Abbott Laboratories, priority 1974, dated 1976).
≈ marks a conversion by molar mass, not a printed value.

Legend:
Assay type in all cases: cell-based
Mycoplasma pneumoniae FH [1] = experiment: two-fold tube dilution test; settings: 144 h, PPLO broth, 6 days at 37° C., read-out: Minimum Inhibitory Concentration
Experimental: (§1) Three niddamycin and two dihydroniddamycin compounds were tested for their activity against Streptococcus pyogenes C203, Diplococcus pneumoniae 6301 and Mycoplasma pneumoniae FH.
(§2) A standard two-fold tube dilution test was used. The medium and inoculum were varied with each culture.
In the test for activity against Mycoplasma pneumoniae FH, 4.5 ml. portions of PPLO broth were used with 0.5 ml. of a 1:100 dilution culture. the test was incubated for 6 days at 37° C.

[2] = test system: Diplococcus pneumoniae 6301; experiment: two-fold tube dilution test; settings: Streptococcus pneumoniae, brain-heart infusion broth and 20% horse serum, 24 hours at 37° C., read-out: Minimum Inhibitory Concentration
Experimental: as §1, §2
In the test for activity against Diplococcus pneumoniae 6301, 5 ml. portions of brain-heart infusion broth and 20% horse serum were used with 0.1 ml. of 1:100 dilution culture. The test was incubated for 24 hours at 37° C.

[3] = test system: Streptococcus pyogenes C203; experiment: two-fold tube dilution test; settings: brain-heart infusion broth, 24 hours at 37° C., read-out: Minimum Inhibitory Concentration
Experimental: as §1, §2
In the test for activity against Streptococcus pyrogenes C203, 5 ml. portions of brain-heart infusion broth were used with 0.1 ml. of a 1:100 dilution culture. The test was incubated for 24 hours at 37° C.

Rhizopus nigricans = experiment: standard FG (fungi) screening program; settings: Rhizopus stolonifer, read-out: Minimum Inhibitory Concentration
Experimental: (§3) The samples were also tested on the standard FG (fungi) screening program.
(§4) The niddamycin base compound (M-188 ) was used as the control compound.

P. citrinum = experiment: standard FG (fungi) screening program; settings: Penicillium citrinum, read-out: Minimum Inhibitory Concentration
Experimental: as §3, §4

A. versicolor = experiment: standard FG (fungi) screening program; settings: Aspergillus versicolor, read-out: Minimum Inhibitory Concentration
Experimental: as §3, §4

C. globosum = experiment: standard FG (fungi) screening program; settings: Chaetomium globosum, read-out: Minimum Inhibitory Concentration
Experimental: as §3, §4

F. oxysporum = experiment: standard FG (fungi) screening program; settings: Fusarium oxysporum, read-out: Minimum Inhibitory Concentration
Experimental: as §3, §4

M. verrucaria = experiment: standard FG (fungi) screening program; settings: read-out: Minimum Inhibitory Concentration
Experimental: as §3, §4

Alternaria label isolate = experiment: standard FG (fungi) screening program; settings: read-out: Minimum Inhibitory Concentration
Experimental: as §3, §4

Shigella sonnei 9290 = experiment: agar two-fold dilution test; settings: 37° C., read-out: Minimum Inhibitory Concentration
Experimental: (§5) Two niddamycin derivatives were tested for their activity against 21 organisms.
(§6) An agar dilution two-fold dilution test was used for the first 14 bacterial organisms, while the remaining seven were tested by means of a two-fold tube dilution method. The incubation for all the tests was carried out at 37° C.
as §4

[4] = test system: Salmonella typhimurium Ed No. 9; experiment: agar two-fold dilution test; settings: Salmonella enterica, 37° C., read-out: Minimum Inhibitory Concentration
Experimental: as §5, §6, §4

Escherichia coli Juhl = experiment: agar two-fold dilution test; settings: 37° C., read-out: Minimum Inhibitory Concentration
Experimental: as §5, §6, §4

[5] = test system: Staphylococcus aureus Smith; experiment: agar two-fold dilution test; settings: 37° C., read-out: Minimum Inhibitory Concentration
Experimental: as §5, §6, §4

[6] = test system: Staphylococcus aureus 9144; experiment: agar two-fold dilution test; settings: 37° C., read-out: Minimum Inhibitory Concentration
Experimental: as §5, §6, §4

[7] = test system: Streptococcus pyogenes Roper; experiment: agar two-fold dilution test; settings: 37° C., read-out: Minimum Inhibitory Concentration
Experimental: as §5, §6, §4

[8] = test system: Klebsiella pneumoniae 10031; experiment: agar two-fold dilution test; settings: 37° C., read-out: Minimum Inhibitory Concentration
Experimental: as §5, §6, §4

[9] = test system: Staphylococcus aureus Wise 155; experiment: agar two-fold dilution test; settings: WISE155, 37° C., read-out: Minimum Inhibitory Concentration
Experimental: as §5, §6, §4

[10] = test system: Streptococcus faecalis 10541; experiment: agar two-fold dilution test; settings: Enterococcus faecalis, 37° C., read-out: Minimum Inhibitory Concentration
Experimental: as §5, §6, §4

[11] = test system: Proteus mirabilis Finland No. 9; experiment: agar two-fold dilution test; settings: 37° C., read-out: Minimum Inhibitory Concentration
Experimental: as §5, §6, §4

[12] = test system: Pasteurella multocida 10544; experiment: agar two-fold dilution test; settings: 37° C., read-out: Minimum Inhibitory Concentration
Experimental: as §5, §6, §4

[13] = test system: Proteus vulgaris Abbott JJ; experiment: agar two-fold dilution test; settings: 37° C., read-out: Minimum Inhibitory Concentration
Experimental: as §5, §6, §4

[14] = test system: Pseudomonas aeruginosa BMH No. 10; experiment: agar two-fold dilution test; settings: BMHNO.10, 37° C., read-out: Minimum Inhibitory Concentration
Experimental: as §5, §6, §4

[15] = test system: Staphylococcus aureus Smith ER; experiment: agar two-fold dilution test; settings: read-out: Minimum Inhibitory Concentration
Experimental: as §5, §6, §4

Mycoplasma pneumoniae FH [16] = experiment: two-fold tube dilution method; settings: 37° C. (Table 2), read-out: Minimum Inhibitory Concentration
Experimental: as §5, §6, §4

[17] = test system: Mycoplasma gallispeticum S6; experiment: two-fold tube dilution method; settings: 37° C., read-out: Minimum Inhibitory Concentration
Experimental: as §5, §6, §4

Crithidia fasciculata = experiment: two-fold tube dilution method; settings: 37° C., read-out: Minimum Inhibitory Concentration
Experimental: as §5, §6, §4

[18] = test system: Haemophilus influenzae 9334; experiment: two-fold tube dilution method; settings: 37° C., read-out: Minimum Inhibitory Concentration
Experimental: as §5, §6, §4

[19] = test system: Mycoplasma hyorhinis 17981; experiment: two-fold tube dilution method; settings: 37° C., read-out: Minimum Inhibitory Concentration
Experimental: as §5, §6, §4

[20] = test system: Mycoplasma granularum 19168; experiment: two-fold tube dilution method; settings: Acholeplasma granularum, 37° C., read-out: Minimum Inhibitory Concentration
Experimental: as §5, §6, §4

[21] = test system: Trichomonas vaginalis C1M1; experiment: two-fold tube dilution method; settings: 37° C., read-out: Minimum Inhibitory Concentration
Experimental: as §5, §6, §4

MIC (Mycoplasma pneumoniae FH [1]) [µg/mL] | MIC [3] [µg/mL] | SMILES | MIC (Rhizopus nigricans) [µg/mL] | MIC (P. citrinum) [µg/mL] | MIC (A. versicolor) [µg/mL] | MIC (C. globosum) [µg/mL] | MIC (F. oxysporum) [µg/mL] | MIC (M. verrucaria) [µg/mL] | MIC (Alternaria label isolate) [µg/mL] | MIC (Shigella sonnei 9290) [µg/mL] | MIC [4] [µg/mL] | MIC (Escherichia coli Juhl) [µg/mL] | MIC [5] [µg/mL] | MIC [6] [µg/mL] | MIC [7] [µg/mL] | MIC [8] [µg/mL] | MIC [9] [µg/mL] | MIC [10] [µg/mL] | MIC [11] [µg/mL] | MIC [12] [µg/mL] | other results
> 100 | > 100 | COC(CC1CC(C)C(=O)C=CC=CCC(C)OC(=O)CC(OC(C)=O)C(OC)C1OC1OC(C)C(OC2CC(C)(O)C(OC(=O)CC(C)C)C(C)O2)C(N(C)C)C1OC(C)=O)OC (stereo not drawn) [Compound 4B, 2',3-Di-(O)-acetylniddamycin dimethyl acetal] | – | – | – | – | – | – | – | – | – | – | – | – | – | – | – | – | – | – | MIC [2]: > 100 µg/mL
50 (≈ 60.1 µM) | 25 (≈ 30 µM) | COC(CC1CC(C)C(O)C=CC=CCC(C)OC(=O)CC(O)C(OC)C1OC1OC(C)C(OC2CC(C)(O)C(OC(=O)CC(C)C)C(C)O2)C(N(C)C)C1O)OC (single isomer, unassigned) [Compound 3, 9-Dihydroniddamycin A dimethyl acetal] | – | – | – | – | – | – | – | – | – | – | – | – | – | – | – | – | – | – | –
50 (≈ 57.2 µM) | 100 (≈ 114 µM) | COC(CC1CC(C)C(O)C=CC=CCC(C)OC(=O)CC(OC(C)=O)C(OC)C1OC1OC(C)C(OC2CC(C)(O)C(OC(=O)CC(C)C)C(C)O2)C(N(C)C)C1O)OC (single isomer, unassigned) [Compound 7B, 3-(O)-Acetyl-9-dihydroniddamycin A dimethyl acetal] | – | – | – | – | – | – | – | – | – | – | – | – | – | – | – | – | – | – | –
25 (≈ 28.7 µM) | 12.5 (≈ 14.3 µM) | COC(CC1CC(C)C(=O)C=CC=CCC(C)OC(=O)CC(OC(C)=O)C(OC)C1OC1OC(C)C(OC2CC(C)(O)C(OC(=O)CC(C)C)C(C)O2)C(N(C)C)C1O)OC (stereo not drawn) [Compound 6B, 3-(O)-Acetylniddamycin dimethyl acetal] | – | – | – | – | – | – | – | – | – | – | – | – | – | – | – | – | – | – | –
– | – | COC1C(O)CC(=O)OC(C)CC=CC=CC(=O)C(C)CC(CC=O)C1OC1OC(C)C(OC2CC(C)(O)C(OC(=O)CC(C)C)C(C)O2)C(N(C)C)C1O (stereo not drawn) [Niddamycin Base, niddamycin] | > 100 | > 100 | > 100 | > 100 | > 100 | > 100 | > 100 | > 100 | > 100 | > 100 | 0.39 (≈ 0.497 µM) | 0.39 (≈ 0.497 µM) | > 100 | 12.5 (≈ 15.9 µM) | 0.78 (≈ 0.995 µM) | 0.78 (≈ 0.995 µM) | > 100 | 12.5 (≈ 15.9 µM) | MIC [13]: > 100 µg/mL; MIC [14]: > 100 µg/mL; MIC [15]: > 100 µg/mL; MIC (Mycoplasma pneumoniae FH [16]): 10 µg/mL (≈ 12.8 µM); MIC [17]: 0.1 µg/mL (≈ 0.128 µM); MIC (Crithidia fasciculata): > 100 µg/mL; MIC [18]: 3.1 µg/mL (≈ 3.95 µM); MIC [19]: 0.25 µg/mL (≈ 0.319 µM); MIC [20]: 1 µg/mL (≈ 1.28 µM); MIC [21]: > 100 µg/mL
25 (≈ 30.1 µM) | 0.78 (≈ 0.94 µM) | COC(CC1CC(C)C(=O)C=CC=CCC(C)OC(=O)CC(O)C(OC)C1OC1OC(C)C(OC2CC(C)(O)C(OC(=O)CC(C)C)C(C)O2)C(N(C)C)C1O)OC (stereo not drawn) [Compound 2, Niddamycin dimethyl acetal] | – | – | – | – | – | – | – | – | – | – | – | – | – | – | – | – | – | – | MIC [2]: ≤ 1.56 µg/mL
– | – | COC1C(O)CC(=O)OC(C)CC=CC=CC(O)C(C)CC(CC=O)C1OC1OC(C)C(OC2CC(C)(O)C(OC(=O)CC(C)C)C(C)O2)C(N(C)C)C1O (single isomer, unassigned) [Compound 5, 9-Dihydroniddamycin A] | > 100 | > 100 | > 100 | > 100 | > 100 | > 100 | > 100 | > 100 | > 100 | > 100 | 0.78 (≈ 0.992 µM) | 0.78 (≈ 0.992 µM) | > 100 | 12.5 (≈ 15.9 µM) | 1.56 (≈ 1.98 µM) | 0.78 (≈ 0.992 µM) | > 100 | 12.5 (≈ 15.9 µM) | MIC [13]: > 100 µg/mL; MIC [14]: > 100 µg/mL; MIC [15]: > 100 µg/mL; MIC (Mycoplasma pneumoniae FH [16]): 50 µg/mL (≈ 63.6 µM); MIC [17]: 0.25 µg/mL (≈ 0.318 µM); MIC (Crithidia fasciculata): > 100 µg/mL; MIC [18]: 6.2 µg/mL (≈ 7.89 µM); MIC [19]: 0.25 µg/mL (≈ 0.318 µM); MIC [20]: 2.5 µg/mL (≈ 3.18 µM); MIC [21]: > 100 µg/mL
– | – | COC1C(OC(C)=O)CC(=O)OC(C)CC=CC=CC(O)C(C)CC(CC=O)C1OC1OC(C)C(OC2CC(C)(O)C(OC(=O)CC(C)C)C(C)O2)C(N(C)C)C1O (single isomer, unassigned) [Compound 8B, 3-(O)-Acetyl-9-Dihydroniddamycin A] | > 100 | > 100 | > 100 | > 100 | > 100 | > 100 | > 100 | > 100 | > 100 | > 100 | 0.78 (≈ 0.942 µM) | 0.78 (≈ 0.942 µM) | > 100 | 25 (≈ 30.2 µM) | 1.56 (≈ 1.88 µM) | 1.56 (≈ 1.88 µM) | > 100 | 12.5 (≈ 15.1 µM) | MIC [13]: > 100 µg/mL; MIC [14]: > 100 µg/mL; MIC [15]: > 100 µg/mL; MIC (Mycoplasma pneumoniae FH [16]): 25 µg/mL (≈ 30.2 µM); MIC [17]: 0.25 µg/mL (≈ 0.302 µM); MIC (Crithidia fasciculata): > 100 µg/mL; MIC [18]: 6.2 µg/mL (≈ 7.49 µM); MIC [19]: 0.5 µg/mL (≈ 0.604 µM); MIC [20]: 5 µg/mL (≈ 6.04 µM); MIC [21]: > 100 µg/mL
